How the values were obtained:
[1] = test system: SPOP-mediated ubiquitination in T-REx-293 cells; test: SPOP-mediated ubiquitination of Pdx1 variants (Ni-NTA pulldown, immunoblot); type: cell-based; conditions: SPOP–myc and GFP–Pdx1 coexpressed 24 h, then 20 μM MG132 or DMSO for 4 h, immunoblot (Fig. 6C)
Method: We next sought to determine whether SPOP-driven ubiquitination of Pdx1 could occur outside of previously implicated droplets. Given the SPOP relocalization phenotype that we observe in cells that express SPOP and Pdx1, we hypothesized that the ubiquitination activity was occurring in the diffuse nucleoplasm and that optimal activity requires both SB sites. To test this hypothesis, we performed in cell ubiquitination assays with GFP–Pdx1 variants. SPOP–myc and GFP–Pdx1 were coexpressed for 24 h in T-REx-293 cells, followed by a 4-h treatment with 20 μM MG132 or dimethyl sulfoxide. Proteins modified with His-ubiquitin were enriched by pulldown on nickel-nitrilotriacetic acid (Ni-NTA) resin.
(§1) A plasmid encoding full-length human Pdx1 (amino acids 1-283) in pcDNA3.1 with a C-terminal GFP tag was purchased from GenScript. Full-length mouse SPOP (identical to the human sequence) with a V5 epitope tag in pcDNA3 was generated previously ([21]). The coding sequence for full-length mouse SPOP was inserted into pcDNA4/TO/myc (Invitrogen) for the T-REx system. pcDNA3-myc-CUL3 (cat no. 19893) and pcDNA–HA2–ROC1 (Rbx1) (cat no. 19897) were obtained from Addgene. pcDNA3 containing His-ubiquitin was a gift from Wenyi Wei.
Ubiquitination and Western blots
T-REx-293 cells (Invitrogen) were seeded at a density of 0.8 × 10^6 per well in 6-well plates (tissue culture–treated plates (cat. no 3516, Corning)). After 24 h, cells were transfected with plasmids encoding Pdx1–GFP, SPOP–myc, His–ubiquitin, HA–Rbx1, and myc–CUL3 (as indicated) using the Qiagen Effectene transfection reagent. 24 h after transfection, the cells were treated with either dimethyl sulfoxide or 20 μM MG132 for 4 h before being harvested. Cells were lysed in buffer A (6 M guanidine HCl, 100 mM sodium phosphate, pH 8.0, and 10 mM imidazole). The lysates were sonicated, cleared, and incubated with Ni-NTA Agarose (Qiagen) for 3 h at RT, followed by 16 h at 4 °C. The beads were washed twice with buffer A and twice with a buffer composed of 1:3 buffer A:buffer T1 (buffer T1: 25 mM Tris HCl, pH 8.0, and 20 mM imidazole). The beads were finally transferred to buffer T1 and then boiled in the SDS-PAGE loading buffer containing 300 mM imidazole. Pdx1 stability assays were performed as described above, except that the cells were not treated with MG132. Cells expressing Pdx1–GFP or a variant were harvested 28 h after transfection, resuspended in 2x SDS-loading dye, and boiled for 5 min before SDS-PAGE analysis.
All proteins were resolved by SDS-PAGE. Separated proteins were analyzed by immunoblotting using either the ECL or the ECL Select Western blotting detection reagents (Amersham). The antibodies used were mouse anti-Pdx1 used at 1:500 for pulldown or 1:2000 for inputs (clone 26771, MAB2419, R&D Systems), mouse anti-myc (1:250, clone 9E10, Santa Cruz Biotechnology), and rabbit anti-GAPDH (1:8000, clone EPR1689, Abcam). horseradish peroxidase-conjugated secondary antibodies were sourced from Jackson ImmunoResearch Laboratories and used at 1:20,000 dilution (goat anti-rabbit IgG, 111-035-003 and goat anti-mouse, 115-035-003).

[2] = test system: SPOP; conditions: previously described, no reference given; cited from earlier work
Source text: SPOP derives its name from the […]. Specifically, SPOP colocalizes with nuclear speckles but has also been reported in other subnuclear compartments ([24], [26]). The nuclear speckles that house SPOP in the absence of high concentrations of substrate are liquid-like in nature ([21]). The SPOP substrate DAXX typically localizes to promyelocytic leukemia bodies ([27]).

[3] = test system: V5-SPOP in HeLa cells; test: Immunofluorescence: V5-SPOP localization on coexpression of GFP–Pdx1 variants; type: cell-based; conditions: 24 h after transfection; for V5-SPOP localization, high Pdx1 expression: cells expressing GFP–Pdx1 at high levels (high GFP intensity); for V5-SPOP localization, low Pdx1 expression: cells expressing GFP–Pdx1 at low levels; for SPOP relocalization from nuclear speckles by Pdx1 variant: coexpressed with V5-SPOP, three biological replicates
Method: HeLa cells were cultured under sterile conditions with Dulbecco’s modified Eagle’s medium (DMEM) (Gibco) supplemented with 10% fetal bovine serum and antibiotics/antimycotics (Gibco) (see Table S5 for key reagents and resources). T-REx-293 cells (cat. no. R710-07) were obtained from Invitrogen. Cells were grown on DMEM supplemented with 10% fetal bovine serum (Gibco), GlutaMax (Gibco), and Penicillin-Streptomycin (Gibco) and kept under selection by 5 μg/ml blasticidin. All cells were grown at 37 °C under 5% CO2 and were mycoplasma free at the time the experiments were performed.
as §1
For immunofluorescence experiments, 0.5 × 10^6 cells were seeded on borosilicate glass coverslips in 6-well plates. After 24 h, cells were transfected with 400 ng of each plasmid using the Qiagen Effectene transfection reagent according to the manufacturer protocol. 24 h after transfection, the cells were treated with 4% paraformaldehyde in PBS for 30 min at RT. Cells were permeabilized with 0.1% Triton X-100 in PBS (PBST) for 5 min at 21 °C, followed by blocking in 0.5% BSA in PBST for 1 h at 21 °C. Signal from GFP-tagged proteins was observed directly. Cells were stained in primary antibodies diluted in 0.5% BSA in PBST overnight at 4 °C with mouse anti-SC-35 (1:300, ab11826; Abcam) and chicken anti-V5 (1:300, NB600-379; Novus Biologicals). Cells were incubated with secondary antibodies for 2 h at 21 °C. The secondary antibodies used were goat anti-mouse Alexa Fluor 647 (1:250, A-21235; Thermo Fisher) and goat anti-chicken Alexa Fluor 555 (1:250, A-21437; Thermo Fisher). Cells on coverslips were treated with 300 nM 4′,6-diamidino-2-phenylindole (DAPI) for 5 min at 21 °C. Coverslips were mounted on glass slides with ProLong Diamond mounting reagent (Thermo Fisher) and cured before imaging on a Zeiss LSM 880 Upright microscope. All images were analyzed and prepared in Fiji ([53]).
All immunofluorescence data were averaged over three biological replicates. Cells not expressing both Pdx1 and SPOP were excluded from sampling. Raw images were collected in the Zeiss Zen software and then exported for viewing and analysis in Fiji. Nuclei of individual cells were designated manually in Fiji using the DAPI channel as a guide. The cells were binned based on whether SPOP was localized to nuclear speckles (puncta); cells with both diffuse and punctate SPOP signal were binned as “speckled.” The grayscale signal intensity of the green channel (Pdx1–GFP) was averaged over the DAPI-designated nuclear area. Next, the raw GFP intensity data points (one data point per cell analyzed) were plotted to generate a violin plot distribution. The average, minimum, and maximum values are shown by horizontal lines on the plot. Individual data points are also shown for rigor. […] All plotting and statistical tests were performed using in-house python scripts that can be found at https://github.com/idpemery/spop-pdx1.

## Pdx1: full-length human Pdx1 (amino acids 1-283) with a C-terminal GFP tag
[1]; listed as GFP–Pdx1–WT
  ubiquitination of Pdx1 variant: is ubiquitinated in cells
[1]; listed as Pdx1–WT
  ubiquitination of Pdx1 variant: robust polyubiquitination
[2]
  type of ubiquitination previously described: primarily monoubiquitination
[3]
  V5-SPOP localization, high Pdx1 expression: SPOP is diffuse
  V5-SPOP localization, low Pdx1 expression: SPOP localizes to nuclear speckles
  SPOP relocalization from nuclear speckles by Pdx1 variant: relocalization of SPOP from nuclear speckles
[3]; listed as WT–Pdx1
  V5-SPOP localization, high Pdx1 expression: primarily diffuse V5-SPOP
  V5-SPOP localization, low Pdx1 expression: V5-SPOP localizes to nuclear speckles
[3]; listed as GFP–Pdx1–WT
  SPOP relocalization from nuclear speckles by Pdx1 variant: SPOP relocalized from nuclear speckles into the diffuse nucleoplasm
